Data: US20250197372A1 (priority 2020, published 2025)

Each compound was assayed against T1, recombinant human GBA (beta-glucocerebrosidase) (Homo sapiens, UniProt P04062) (assay: Beta-glucocerebrosidase (GBA, glucosylceramidase) assay (4-methylumbelliferyl-beta-D-pyranoside substrate, fluorescence)).
T1 sequence (P04062 40-536): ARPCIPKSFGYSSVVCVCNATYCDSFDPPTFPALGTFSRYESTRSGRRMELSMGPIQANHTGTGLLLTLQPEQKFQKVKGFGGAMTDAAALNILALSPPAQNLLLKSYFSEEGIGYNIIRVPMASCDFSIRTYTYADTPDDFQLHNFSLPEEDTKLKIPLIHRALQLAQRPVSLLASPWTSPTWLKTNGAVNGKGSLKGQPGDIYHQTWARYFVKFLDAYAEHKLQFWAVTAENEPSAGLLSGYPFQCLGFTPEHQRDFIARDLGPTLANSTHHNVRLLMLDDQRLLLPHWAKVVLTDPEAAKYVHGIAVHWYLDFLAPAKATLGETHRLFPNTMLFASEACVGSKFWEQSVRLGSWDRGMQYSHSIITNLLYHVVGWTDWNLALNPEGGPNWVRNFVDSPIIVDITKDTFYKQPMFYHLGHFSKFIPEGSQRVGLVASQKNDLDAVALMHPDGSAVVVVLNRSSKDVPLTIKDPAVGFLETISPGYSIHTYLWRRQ
Type: biochemical
Method in brief: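 Recombinant human GBA preincubated with compound dilutions 60 min at 37 °C, then 4-methylumbelliferyl-beta-D-pyranoside added for 60 min at 37 °C. Stopped at pH 10 (glycine/NaOH); fluorescence ex 365/em 440 nm. IC50 from 4-PL fit of inhibition relative to untreated enzyme.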

Row | Compound | IC50 [µM]
1 | Cc1cc(NCc2cnc(CN3C[C@H](O)[C@@H](O)[C@H](O)[C@H]3CO)cn2)cc(N2CCOCC2)c1 [Compound 1332, (2R,3R,4R,5S)-2-(hydroxymethyl)-1-{[5-({[3-methyl-5-(morpholin-4-yl)phenyl]amino}methyl)pyrazin-2-yl]methyl}piperidine-3,4,5-triol] | > 100
2 | CC#Cc1ccc(NCCCCCCN2C[C@H](O)[C@@H](O)[C@H](O)[C@H]2CO)c([N+](=O)[O-])c1 [Compound 1290, (2R,3R,4R,5S)-2-(hydroxymethyl)-1-(6-{[2-nitro-4-(prop-1-yn-1-yl)phenyl]amino}hexyl)piperidine-3,4,5-triol] | 0.175
3 | COc1ccc(CCCCCCCN2C[C@H](O)[C@@H](O)[C@H](O)[C@H]2CO)cc1 [Compound 1309, (2R,3R,4R,5S)-2-(hydroxymethyl)-1-[7-(4-methoxyphenyl)heptyl]piperidine-3,4,5-triol] | 2.34
4 | [N-]=[N+]=Nc1ccc(NCCN2CC(OCCN3C[C@H](O)[C@@H](O)[C@H](O)[C@H]3CO)C2)c([N+](=O)[O-])c1 [Compound 1271, (2R,3R,4R,5S)-1-{2-[(1-{2-[(4-azido-2-nitrophenyl)amino]ethyl}azetidin-3-yl)oxy]ethyl}-2-(hydroxymethyl)piperidine-3,4,5-triol] | 1.9
5 | CN(C)Cc1ccc(NCCCCCCN2C[C@H](O)[C@@H](O)[C@H](O)[C@H]2CO)c(C(F)(F)F)c1 [Compound 1259, (2R,3R,4R,5S)-1-[6-({4-[(dimethylamino)methyl]-2-(trifluoromethyl)phenyl}amino)hexyl]-2-(hydroxymethyl)piperidine-3,4,5-triol] | 1.35
6 | CN(C)Cc1ccc(NCCCCCCN2C[C@H](O)[C@@H](O)[C@H](O)[C@H]2CO)c(C(=O)O)c1 [Compound 1245, 5-[(dimethylamino)methyl]-2-({6-[(2R,3R,4R,5S)-3,4,5-trihydroxy-2-(hydroxymethyl)piperidin-1-yl]hexyl}amino)benzoic acid] | 56
7 | CS(=O)(=O)c1cc(NCc2cccc(CN3C[C@H](O)[C@@H](O)[C@H](O)[C@H]3CO)c2)cc(N2CCOCC2)c1 [Compound 1036, (2R,3R,4R,5S)-2-(hydroxymethyl)-1-{[3-({[3-methanesulfonyl-5-(morpholin-4-yl)phenyl]amino}methyl)phenyl]methyl}piperidine-3,4,5-triol] | > 100
8 | Cc1cc(Br)cc(NCc2ccc(CN3C[C@H](O)[C@@H](O)[C@H](O)[C@H]3CO)cc2)c1 [Compound 1024, (2R,3R,4R,5S)-1-[(4-{[(3-bromo-5-methylphenyl)amino]methyl}phenyl)methyl]-2-(hydroxymethyl)piperidine-3,4,5-triol] | 21.1
9 | Cc1cc(NCc2cccc(CN3C[C@H](O)[C@@H](O)[C@H](O)[C@H]3CO)n2)cc(N2CCOCC2)c1 [Compound 1336, (2R,3R,4R,5S)-2-(hydroxymethyl)-1-{[6-({[3-methyl-5-(morpholin-4-yl)phenyl]amino}methyl)pyridin-2-yl]methyl}piperidine-3,4,5-triol] | > 100
10 | Cc1cc(NCc2cccc(CN3C[C@H](O)[C@@H](O)[C@H](O)[C@H]3CO)c2)cc(-c2ccc[nH]2)c1 [Compound 1033, (2R,3R,4R,5S)-2-(hydroxymethyl)-1-{[3-({[3-methyl-5-(1H-pyrrol-2-yl)phenyl]amino}methyl)phenyl]methyl}piperidine-3,4,5-triol] | > 100
11 | Nc1ccc(NCCc2ccccc2CCN2C[C@H](O)[C@@H](O)[C@H](O)[C@H]2CO)c([N+](=O)[O-])c1Cl [Compound 1239, (2R,3R,4R,5S)-1-[2-(2-{2-[(4-amino-3-chloro-2-nitrophenyl)amino]ethyl}phenyl)ethyl]-2-(hydroxymethyl)piperidine-3,4,5-triol] | 0.114
12 | N#CCc1ccc(NCCCCCCN2C[C@H](O)[C@@H](O)[C@H](O)[C@H]2CO)c([N+](=O)[O-])c1 [Compound 1299, 2-[3-nitro-4-({6-[(2R,3R,4R,5S)-3,4,5-trihydroxy-2-(hydroxymethyl)piperidin-1-yl]hexyl}amino)phenyl]acetonitrile] | 3.39
13 | CS(C)=NS(=O)(=O)c1cc(-c2ncccn2)ccc1NCCCCCCN1C[C@H](O)[C@@H](O)[C@H](O)[C@H]1CO [Compound 1247, N-(dimethyl-2-sulfanylidene)-5-(pyrimidin-2-yl)-2-({6-[(2R,3R,4R,5S)-3,4,5-trihydroxy-2-(hydroxymethyl)piperidin-1-yl]hexyl}amino)benzene-1-sulfonamide] | 11.8
14 | Cc1cc(NCc2cccc(CN3C[C@H](O)[C@@H](O)[C@H](O)[C@H]3CO)n2)cc(-c2ncccn2)c1 [Compound 1322, (2R,3R,4R,5S)-2-(hydroxymethyl)-1-{[6-({[3-methyl-5-(pyrimidin-2-yl)phenyl]amino}methyl)pyridin-2-yl]methyl}piperidine-3,4,5-triol] | 99
15 | Cc1cc(NCc2ccc(CN3C[C@H](O)[C@@H](O)[C@H](O)[C@H]3CO)cc2)cc(-n2nccn2)c1 [Compound 1316, (2R,3R,4R,5S)-2-(hydroxymethyl)-1-{[4-({[3-methyl-5-(2H-1,2,3-triazol-2-yl)phenyl]amino}methyl)phenyl]methyl}piperidine-3,4,5-triol] | > 100
16 | [N-]=[N+]=Nc1ccc(NCCC(O)C(O)CCN2C[C@H](O)[C@@H](O)[C@H](O)[C@H]2CO)c([N+](=O)[O-])c1 (stereo partly drawn) [Compound 1270, (2R,3R,4R,5S)-1-{6-[(4-azido-2-nitrophenyl)amino]-3,4-dihydroxy-hexyl}-2-(hydroxymethyl)piperidine-3,4,5-triol] | 0.081
17 | CS(=O)(=O)c1cc(Br)cc(NCc2ccc(CN3C[C@H](O)[C@@H](O)[C@H](O)[C@H]3CO)cc2)c1 [Compound 1025, (2R,3R,4R,5S)-1-[(4-{[(3-bromo-5-methanesulfonylphenyl)amino]methyl}phenyl)methyl]-2-(hydroxymethyl)piperidine-3,4,5-triol] | 38.9
18 | OC[C@@H]1[C@@H](O)[C@H](O)[C@@H](O)CN1Cc1cnc(CNc2cc(-c3ncccn3)cc(C3CC3)c2)cn1 [Compound 1329, (2R,3R,4R,5S)-1-{[5-({[3-cyclopropyl-5-(pyrimidin-2-yl)phenyl]amino}methyl)pyrazin-2-yl]methyl}-2-(hydroxymethyl)piperidine-3,4,5-triol] | 82.9
19 | OC[C@@H]1[C@@H](O)[C@H](O)[C@@H](O)CN1Cc1cccc(CNc2ccc(Br)cc2)c1 [Compound 1027, (2R,3R,4R,5S)-1-[(3-{[(4-bromophenyl)amino]methyl}phenyl)methyl]-2-(hydroxymethyl)piperidine-3,4,5-triol] | 75.7
20 | Cc1nc(=O)c2cc(-c3ncccn3)ccc2n1CCCCCCN1C[C@H](O)[C@@H](O)[C@H](O)[C@H]1CO [Compound 1246, 2-methyl-6-(pyrimidin-2-yl)-1-{6-[(2R,3R,4R,5S)-3,4,5-trihydroxy-2-(hydroxymethyl)piperidin-1-yl]hexyl}-1,4-dihydroquinazolin-4-one] | 21.6
21 | [N-]=[N+]=Nc1ccc(NCCOCCN2C[C@H](O)[C@@H](O)[C@H](O)[C@H]2CO)c([N+](=O)[O-])c1 [Compound 1255, (2R,3R,4R,5S)-1-(2-{2-[(4-azido-2-nitrophenyl)amino]ethoxy}ethyl)-2-(hydroxymethyl)piperidine-3,4,5-triol] | 3.08
22 | N#Cc1cc(Br)cc(NCc2cccc(CN3C[C@H](O)[C@@H](O)[C@H](O)[C@H]3CO)c2)c1 [Compound 1023, 3-bromo-5-{[(3-{[(2R,3R,4R,5S)-3,4,5-trihydroxy-2-(hydroxymethyl)piperidin-1-yl]methyl}phenyl)methyl]amino}benzonitrile] | 91.1
23 | O=[N+]([O-])c1cc(N2CC3CC2CO3)ccc1NCc1ccc(CN2C[C@@H](O)[C@H](O)[C@@H](O)[C@@H]2CO)cc1 (stereo in doubt) [Compound 1015, (2S,3S,4S,5R)-2-(hydroxymethyl)-1-[(4-{[(2-nitro-4-{2-oxa-5-azabicyclo[2.2.1]heptan-5-yl}phenyl)amino]methyl}phenyl)methyl]piperidine-3,4,5-triol] | > 100
24 | COCCCCCN(CCCNc1ccc(N=[N+]=[N-])cc1[N+](=O)[O-])CCCN1C[C@H](O)[C@@H](O)[C@H](O)[C@H]1CO [Compound 1221, (2R,3R,4R,5S)-1-[3-({3-[(4-azido-2-nitrophenyl)amino]propyl}(5-methoxypentyl)amino)propyl]-2-(hydroxymethyl)piperidine-3,4,5-triol] | 0.057
25 | OC[C@@H]1[C@@H](O)[C@H](O)[C@@H](O)CN1CCCCCCNc1ccc(-c2ncccn2)cc1C(F)(F)F [Compound 1258, (2R,3R,4R,5S)-2-(hydroxymethyl)-1-(6-{[4-(pyrimidin-2-yl)-2-(trifluoromethyl)phenyl]amino}hexyl)piperidine-3,4,5-triol] | 1.35
26 | COc1cc(-c2ncccn2)ccc1NCCCCCCN1C[C@H](O)[C@@H](O)[C@H](O)[C@H]1CO [Compound 1231, (2R,3R,4R,5S)-2-(hydroxymethyl)-1-(6-{[2-methoxy-4-(pyrimidin-2-yl)phenyl]amino}hexyl)piperidine-3,4,5-triol] | 2.11
27 | OC[C@@H]1[C@@H](O)[C@H](O)[C@@H](O)CN1CCCCCCCCC1CNCCO1 (stereo partly drawn) [Compound 1311, (2R,3R,4R,5S)-2-(hydroxymethyl)-1-[8-(morpholin-2-yl)octyl]piperidine-3,4,5-triol] | 26.2
